Measurements from US20060160785A1, “Ezetimibe polymorphs” (priority 2004, published 2006).
Values after ≈ are worked out from the molar mass of the structure shown. “Also recorded” adds a separate entry of the source.

What was measured:
[1] = Transformation of ezetimibe crystal forms by heating (XRD); format: physicochemical
From the text: In the following examples, the forms of ezetimibe were identified using Scintag X-ray powder diffractometer model X'TRA, Cu-tube solid state detector. The sample holder was a round standard aluminum sample holder with rough zero background quartz plate with a cavity of 25 (diameter) X 0.5 mm (depth). The scanning parameters were range: 2-40 degrees two-theta; scan mode: continuous scan; step size: 0.05 deg.; and a rate of 3 deg/min.
After two hours, each sample was removed and analyzed by XRD.

Solubility of ezetimibe = format: physicochemical; conditions: water
[2] = reported; cited from earlier work
[3] = cited from earlier work
[4] = Transformation under different relative humidities (XRD and KF); format: physicochemical; conditions: for Crystal form / Water content by KF: 25-30° C.
Experimental: 500 mg samples were placed in an open glass bottle at a temperature of 25° C. to 30° C., under various humidity for a sufficient time (1-14 days) for each sample to equilibrate. At the end of each time period, each sample was removed and analyzed by XRD and by KF. The results are summarized below in Tables 6-7 for starting Forms A and B, respectively.

[5] = Particle size distribution by Malvern laser diffraction; format: physicochemical; conditions: prime particles with sonication
Experimental: A Malvern Laser Diffraction instrument was used to characterize the particle size distribution of ezetimibe. A Mastersizer S model equipped with a small cell dispersion unit MS1 with a digital dispersion unit controller was used. The measurement was done using range lens 300RF (working range 0.05-900 mcm), beam length: 2.40 mm and presentation 3NHE. In this case, a solution of dioctyl sulfosuccinate sodium salt in n-hexane was used as a dilution medium. The measurement was started after 1 minute of recirculation after suspension addition into measurement cell at speed rate 2000±10 rpm.
The suspension was prepared of 0.1 g sample in solution 0.065% dioctyl sulfosuccinate sodium salt in n-hexane by vortex for 10 seconds and by sonication for 30 seconds. According to the accepted rules of Good Manufacture Procedures, the sample of ezetimibe is preferably measured after a successful blank measurement (% obscuration NMT 0.1% is performed.

[6] = Effect of pressing on crystalline stability; format: physicochemical; conditions: pressed 1 minute, approximately 1300 psi
Experimental: Crystalline stability of Form A and Form B was tested by pressing each of the forms for about 1 minute under a pressure of about 1300 psi. […] Form A is also stable under pressing.
Forms A and B were studied under pressure. The forms were pressed for 1 minute under a pressure of approximately 1300 psi.

[7] = Micronization (milling) crystal form stability; format: physicochemical
Experimental: Micronization of Form B is preferably carried out by milling Form B using a feed air rate of about 6 bar and a grinding air pressure of about 5 bar, for about 20 to about 30 minutes.
Form B was milled by a 50 mm micronizer for about 20 to 30 minutes. The feed air rate was 6.0 bar and the grinding air was 5.0 bar. The sample was analyzed before and after micronization by XRD. During micronization 65% (estimated by XRD and by KF) of Form B converted to Form A. The estimated water content is 1-2% by weight. Micronization of Form A on the other hand results in Form A.

[8] = Maximum particle size by microscope observation; format: physicochemical
Experimental: (§1) 1 g mixture of micronized Form A and B was stored at 30° C. under 100% RH for 8 days. The mixture of Form A and Form B converted to 100% Form B after storage. Micronized Form B contained 4.1% water by weight based on Karl Fischer analysis. The micronized sample was analyzed before and after storage by XRD. The material was dispersed in light mineral oil before measurement for microscope observation. Form B was in the shape of needles and plates.
(§2) Table 8 illustrates the maximum particle size and specific surface area of ezetimibe Form B before and after micronization. The maximum particle size was determined by microscope observation.

[9] = Specific surface area (Coulter SA3100, BET); format: physicochemical
Experimental: Specific surface area was measured using the following parameters:
Instrument: Coulter SA3100
as §2

[10] = Stability of Form B in water slurry; format: physicochemical
Experimental: Ezetimibe Form B was stirred in soft water (25 ml) for 4 h at room temperature (heavy slurry). The mixture was filtered and washed with water (20 ml). The wet sample, after washing, was Form B. The solid was dried under vacuum at 45° C. for 18 hrs. The dry sample contained Form B (20-30% by weight) and Form A. 95% yield.

[11] = Storage of micronized Form A and B mixture at 30° C., 100% RH; format: physicochemical; conditions: 8 days
Experimental: as §1

[12] = 50 mm micronizer, 20 to 30 minutes

With `O=C1[C@H](CC[C@H](O)c2ccc(F)cc2)[C@@H](c2ccc(O)cc2)N1c1ccc(F)cc1` [Amorphous Form, 1-(4-fluorophenyl)-3(R)-[3-(4-fluorophenyl)-3(S)-hydroxypropyl]-4(S)-(4-hydroxyphenyl)-2-azetidinone] the “heat transformation result (crystal form by XRD)” value (shortened to “heat transformation result”) ([1]; 60° C., 2 h, atmospheric oven) was “Amorphous Form”, the “heat transformation result” value ([1]; 90° C., 2 h, atmospheric oven) was “Form A” and the “temperature at which it transforms to Form A” value ([1]; heating) was “above 60 °C”.
For `O=C1[C@H](CC[C@H](O)c2ccc(F)cc2)[C@@H](c2ccc(O)cc2)N1c1ccc(F)cc1` [Ezetimibe, 1-(4-fluorophenyl)-3(R)-[3-(4-fluorophenyl)-3(S)-hydroxypropyl]-4(S)-(4-hydroxyphenyl)-2-azetidinone], the solubility (Solubility of ezetimibe) is listed as 10 µg/mL (≈ 24.4 µM), the “stability at ambient temperature” value [2] is listed as “stable” and the “solubility in ethanol, methanol, and acetone” value ([3]; ethanol, methanol, acetone) is listed as “freely to very soluble”. For the same compound, the “solubility in water” value ([3]; water) was “practically insoluble”.
With `O=C1[C@H](CC[C@H](O)c2ccc(F)cc2)[C@@H](c2ccc(O)cc2)N1c1ccc(F)cc1` [Form A, 1-(4-fluorophenyl)-3(R)-[3-(4-fluorophenyl)-3(S)-hydroxypropyl]-4(S)-(4-hydroxyphenyl)-2-azetidinone] the “heat transformation result” value ([1]; 60° C., 2 h, atmospheric oven) was “Form A”, the “heat transformation result” value ([1]; 90° C., 2 h, atmospheric oven) was “Form A” and the “heat transformation result” value ([1]; 110° C., 2 h, atmospheric oven) was “Form A”. The stability upon heating ([1]; even at high temperatures) was “stable”, the Crystal form ([4]; RH 0%, 12 days) was “Form A” and the “Water content by KF” value ([4]; RH 0%, 12 days) was 0.2 wt %. The Crystal form ([4]; RH 20%, 7 days) was “Form A + ˜5% B*”, the “Water content by KF” value ([4]; RH 20%, 7 days) was 0.2 wt % and the Crystal form ([4]; RH 40%, 12 days) was “Form A + ˜5-10% B*”. The “Water content by KF” value ([4]; RH 40%, 12 days) was 0.3 wt %, the Crystal form ([4]; RH 80%, 12 days) was “Form B” and the “Water content by KF” value ([4]; RH 80%, 12 days) was 4.5 wt %. For the same compound, the Crystal form ([4]; RH 100%, 1 day) was “Form B”, the “Water content by KF” value ([4]; RH 100%, 1 day) was 4.3 wt % and the “d (0.5)” value [5] was 3.18-3.33 microns. The “d (0.9)” value [5] was 7.95-8.05 microns, the “d(0.1)” value [5] was 0.39 microns and the “Sample after pressing (crystal form)” value [6] was “stable; also recorded: Form A + ˜5% B”. The “crystal form after micronization” value [7, 12] was “Form A” and the stability upon micronization ([7]; milling, feed air 6 bar, grinding air 5 bar) was “stable”.
With `O=C1[C@H](CC[C@H](O)c2ccc(F)cc2)[C@@H](c2ccc(O)cc2)N1c1ccc(F)cc1` [Form B, 1-(4-fluorophenyl)-3(R)-[3-(4-fluorophenyl)-3(S)-hydroxypropyl]-4(S)-(4-hydroxyphenyl)-2-azetidinone] the “heat transformation result” value ([1]; 45° C., 18 h) was “Form A”, the “heat transformation result” value ([1]; 60° C., 2 h, atmospheric oven) was “Form A” and the “heat transformation result” value ([1]; 90° C., 2 h, atmospheric oven) was “Form A”. The “heat transformation result” value ([1]; 110° C., 2 h, atmospheric oven) was “Form A”, the Maximum particle size ([8]; After micronization) was 20 μm and the Maximum particle size ([8]; Before micronization) was 400 μm. The Crystal form ([4]; RH 0%, 14 days) was “Form A”, the “Water content by KF” value ([4]; RH 0%, 14 days) was 0.1 wt % and the Crystal form ([4]; RH 20%, 7 days) was “Form A + ˜5% B*”. The “Water content by KF” value ([4]; RH 20%, 7 days) was 0.2 wt %, the Crystal form ([4]; RH 40%, 14 days) was “Form B” and the “Water content by KF” value ([4]; RH 40%, 14 days) was 4.0 wt %. The Crystal form ([4]; RH 80%, 14 days) was “Form B”, the “Water content by KF” value ([4]; RH 80%, 14 days) was 4.3 wt % and the Crystal form ([4]; RH 100%, 14 days) was “Form B”. For the same compound, the “Water content by KF” value ([4]; RH 100%, 14 days) was 4.4 wt %, the SSA ([9]; After micronization) was 6.8 m^2/g and the SSA ([9]; Before micronization) was 3.4 m^2/g. For the same compound, the “Form B content of dry sample after water slurry” value ([10]; dried under vacuum at 45° C. for 18 hrs, remainder Form A) was 20-30 % by weight, the “crystal form of wet sample after water slurry” value ([10]; soft water, 4 h, room temperature, filtered and washed) was “Form B” and the “Sample after pressing (crystal form)” value [6] was “retains its crystalline form; also recorded: Form B”. The “estimated water content after micronization” value [7, 12] was 1-2 % by weight and the “Form B converted to Form A during micronization” value ([7]; 50 mm micronizer, 20 to 30 minutes, estimated by XRD and by KF) was 65%.
For `O=C1[C@H](CC[C@H](O)c2ccc(F)cc2)[C@@H](c2ccc(O)cc2)N1c1ccc(F)cc1` [Micronized Form B], the “water content by Karl Fischer after storage” value [11] was 4.1 % by weight, the “stability in relative humidity” value ([4]; relative humidity of about 40% to about 100%) was “stable” and the stability upon slurrying [10] was “stable”.
With `O=C1[C@H](CC[C@H](O)c2ccc(F)cc2)[C@@H](c2ccc(O)cc2)N1c1ccc(F)cc1` [mixture of micronized Form A and B] the “Form B content after storage” value [11] was 100%.
